Measured values reported in patent US20250041232A1, “MICROSPHERES COMPRISING HIGH-DOSE VARENICLINE, METHOD FOR PREPARING SAME, AND PHARMACEUTICAL COMPOSITION COMPRISING SAME” (AULBIO CO., LTD., priority 2021, published 2025).

Assay: Measurement of varenicline loading amount and encapsulation efficiency in microspheres (HPLC)
Assay type: physicochemical
Conditions: microspheres dissolved in acetonitrile/80% methanol, HPLC-UV
Method: About 10 mg of the microspheres prepared in Example 2 and Comparative Examples 1 and 2 were taken, placed in a 20 mL flask, and completely dissolved in 2 mL of acetonitrile (manufacturer: Honeywell). It was adjusted to the mark with 80% methanol (manufacturer: Honeywell) and filtered through a 0.45 μm syringe filter. This solution was detected with an ultraviolet-visible spectrophotometer using HPLC (equipment name: Agilent). L1 (inner diameter 4.6 mm×150 mm, thickness 5 μm) was used as the column.

Substance: varenicline pamoate salt
- Encapsulation efficiency (%): more than 90%
